Assay results from PMC4506051, “Pharmacokinetic Profiles of Active Ingredients and Its Metabolites Derived from Rikkunshito, a Ghrelin Enhancer, in Healthy Japanese Volunteers: A Cross-Over, Randomized Study” (PLoS ONE, 2015).
Values belong to the compound of their own block, whether it stands above or below them.

What was measured:
[1] = Method validation: stability in standard, stock and working solution; conditions: IS 2000 ng/mL
[2] = Exploratory trial: amount of rikkunshito ingredients in urine; type: in vivo, human
Procedure: (§1) In the first exploratory trial, 20-mL blood samples were collected from the cutaneous vein in the subjects’ forearm via a blood sampling tube that contained heparin at 0 (preadministration), 0.5, 1, 2, 4, and 8 h after a single oral administration of rikkunshito (Lot E24652). The dose of rikkunshito used in this trial was 7.5 g/day, which is the clinical daily dose, to widely explore rikkunshito-derived ingredients that enter the blood. Along with plasma, urine samples were collected at three points: between dinner and bedtime (preadministration), between 0 and 4 h after administration, and between 4 and 8 h after administration. The blood was immediately centrifuged at 1700 ×g for 10 min to obtain plasma. Plasma and urine fractions were stored at −80°C or lower until analysis.
(§2) For quantification of synephrine, 5 µL of standard solution or methanol was added to 100 µL plasma or urine samples followed by mixing. Ten microliters of erythromycin [internal standard (IS)] solution was added to the solutions followed by mixing and centrifugation (20,400 ×g, 5 min, 4°C). The supernatants were loaded onto an Ostro 96-well plate (Waters) and centrifuged (1500 ×g, 3 min, 4°C) followed by injection into the LC–MS/MS.
(§3) For quantification of 30 ingredients other than atractylodin and synephrine, 25 µL of standard solution or methanol was added to 500 µL plasma or urine samples followed by mixing. Atractylenolide III or digoxin (IS) solution (50 μL) was added to the solutions followed by mixing. For urine, 400 µL of blank plasma was added to the solutions. Ammonium acetate solution (100 mM, 100 or 400 µL) was added to the solutions followed by mixing. For enzymatic treatment, plasma and urine samples were incubated with β-glucuronidase (100 units in 100 mM ammonium acetate) for 2 h at 37°C. A solid-phase cartridge (OASIS HLB, 30 mg/1cc, Waters) was conditioned with methanol and 10 mM ammonium acetate solution, and the samples were loaded onto the cartridge. The cartridge was washed water : methanol (9:1, v/v), and 1.5 mL of methanol and 30 µL of propylene glycol were added to the cartridge to elute the analytes. The mixtures were dried at 25°C under a stream of nitrogen gas. Furthermore, 100 μL of 10 mM ammonium acetate : methanol (8:2, v/v) was added to the dried samples followed by mixing and sonication. The solutions were filtered (0.22 µm) and followed by injection into the LC–MS/MS system. […] Those analytical conditions are summarized in S2 Table and S3 Table.

[3] = Exploratory trial: ingredients in β-glucuronidase (enzyme)-treated urine; type: in vivo, human
Procedure: as §1, §3

[4] = Stability of ingredients in gastric pH solution (pH 1.2, 37°C); type: physicochemical
Procedure: Rikkunshito gradually dissolved in acidic solution (pH 1.2) at 37°C, and the concentration of atractylodin after adding 0.25, 0.5, 1, and 2 h was measured by gas chromatography–mass spectrometry.

[5] = Exploratory trial: plasma concentration of rikkunshito ingredients after single oral rikkunshito 7.5 g; type: in vivo; conditions: for Plasma concentration, 0 h: 0 h (preadministration), single oral rikkunshito 7.5 g; for Plasma concentration, 4 h: 4 h after single oral rikkunshito 7.5 g; for Plasma concentration, 8 h: 8 h after single oral rikkunshito 7.5 g
Procedure: A random sequence was generated using a computer. The safety endpoint was evaluated in all volunteers.
as §1, §2, §3

[6] = Exploratory trial: ingredients in β-glucuronidase (enzyme)-treated plasma; type: in vivo, human; conditions: β-glucuronidase-treated, rikkunshito 7.5 g, mean ± S.D., n = 4
Procedure: as §1, §3

[7] = Formation of ingredients derived from rikkunshito in formulation, blood, and urine (S11 Table summary); conditions: after rikkunshito administration, per ingredient in the formulation
[8] = 0–4 h after single oral rikkunshito 7.5 g, mean ± S.D., n = 4
[9] = 4–8 h after single oral rikkunshito 7.5 g, mean ± S.D., n = 4
[10] = preadministration (between dinner and bedtime), mean ± S.D., n = 4
[11] = β-glucuronidase-treated, 0–4 h after rikkunshito 7.5 g, mean ± S.D., n = 4
[12] = β-glucuronidase-treated, 4–8 h after rikkunshito 7.5 g, mean ± S.D., n = 4
[13] = β-glucuronidase-treated, preadministration, mean ± S.D., n = 4
[14] = rikkunshito in acidic solution (pH 1.2) at 37°C, 0.5 h
[15] = rikkunshito in acidic solution (pH 1.2) at 37°C, 1 h
[16] = rikkunshito in acidic solution (pH 1.2) at 37°C, 2 h

- Short-term stability of standard solution, RR ([1]; at room temperature for 24 h): IS: 100.0%
- Long-term stability of standard solution, RR ([1]; refrigerator (0.5°C to 7.4°C) for 4 weeks): IS: 93.4%
Compound: C=C1CCC[C@]2(C)C[C@]3(O)OC(=O)C(C)=C3C[C@@H]12 [IS, Atractylenolide III, reference compound]

- Amount in urine, Pre ([2]; human, in vivo): 18.6 ± 26.2 ng
- Amount in urine, 0–4 h ([2]; human, in vivo, po): 602 ± 552 ng
- Amount in urine, 4–8 h ([2]; human, in vivo, po): 35.0 ± 57.1 ng
- Amount in enzyme-treated urine, 0–4 h ([3]; human, in vivo): 8170 ± 5630 ng
- Amount in enzyme-treated urine, 4–8 h ([3]; human, in vivo): 821 ± 654 ng
- Amount in enzyme-treated urine, Pre ([3]; human, in vivo): 278 ± 261 ng
- Increase of urine concentration after β-glucuronidase treatment compared with before treatment ([3]; human, in vivo): more than 10 fold
- Stability in gastric pH solution, Quantitative value ([4]; 0.5 h, pH 1.2): 152 ng/mL
- Stability in gastric pH solution, Quantitative value ([4]; 1 h, pH 1.2): 154 ng/mL
- Stability in gastric pH solution, Quantitative value ([4]; 2 h, pH 1.2): 149 ng/mL
Compound: CCCCC[C@H](O)CC(=O)CCc1ccc(O)c(OC)c1 [[6]-Gingerol, [6]-Gingerol]

Compound: CCCCCCC[C@H](O)CC(=O)CCc1ccc(O)c(OC)c1 [[8]-Gingerol, [8]-Gingerol]
- Amount in urine, 0–4 h [2, 8]: 8.97 ± 17.9 ng
- Amount in urine, 4–8 h [2, 9]: BQL
- Amount in urine, Pre [2, 10]: BQL
- Amount in enzyme-treated urine, 0–4 h [3, 11]: 49.5 ± 78.3 ng
- Amount in enzyme-treated urine, 4–8 h [3, 12]: BQL
- Amount in enzyme-treated urine, Pre [3, 13]: 2.73 ± 5.46 ng

Compound: CNCC(O)c1ccc(O)cc1 (stereo not drawn) [Synephrine]
- Amount in urine, 0–4 h [2, 8]: 2150 ± 296 ng
- Amount in urine, 4–8 h [2, 9]: 798 ± 282 ng
- Amount in urine, Pre [2, 10]: 24.2 ± 28.8 ng
- Stability in gastric pH solution, Quantitative value [4, 14]: 3200 ng/mL
- Stability in gastric pH solution, Quantitative value [4, 15]: 3180 ng/mL
- Stability in gastric pH solution, Quantitative value [4, 16]: 2960 ng/mL
- Plasma concentration, 0 h ([5]; mean ± S.D., n = 4): BQL
- Plasma concentration, 0.5 h ([5]; 0.5 h after single oral rikkunshito 7.5 g, mean ± S.D., n = 4): 0.029 ± 0.058 ng/mL
- Plasma concentration, 1 h ([5]; 1 h after single oral rikkunshito 7.5 g, mean ± S.D., n = 4): BQL
- Plasma concentration, 2 h ([5]; 2 h after single oral rikkunshito 7.5 g, mean ± S.D., n = 4): BQL
- Plasma concentration, 4 h ([5]; mean ± S.D., n = 4): BQL
- Plasma concentration, 8 h ([5]; mean ± S.D., n = 4): BQL

- Amount in urine, 0–4 h [2, 8]: 459 ± 283 ng
- Amount in urine, 4–8 h [2, 9]: 15.4 ± 30.7 ng
- Amount in urine, Pre [2, 10]: 16.3 ± 26.4 ng
- Increase of urine concentration after β-glucuronidase treatment compared with before treatment ([3]; rikkunshito 7.5 g): more than 10 fold
- Amount in enzyme-treated urine, 0–4 h [3, 11]: 4980 ± 1480 ng
- Amount in enzyme-treated urine, 4–8 h [3, 12]: 392 ± 310 ng
- Amount in enzyme-treated urine, Pre [3, 13]: 109 ± 160 ng
- Stability in gastric pH solution, Quantitative value [4, 14]: 17.9 ng/mL
- Stability in gastric pH solution, Quantitative value [4, 15]: 18.5 ng/mL
- Stability in gastric pH solution, Quantitative value [4, 16]: 17.9 ng/mL
Compound: CCCCC/C=C/C(=O)CCc1ccc(O)c(OC)c1 [[6]-Shogaol, [6]-Shogaol]

- Amount in urine, 0–4 h [2, 8]: 2300 ± 1150 ng
- Amount in urine, 4–8 h [2, 9]: 1600 ± 886 ng
- Amount in urine, Pre [2, 10]: 4.61 ± 4.20 ng
- Amount in enzyme-treated urine, 0–4 h [3, 11]: 7010 ± 2840 ng
- Amount in enzyme-treated urine, 4–8 h [3, 12]: 3260 ± 1580 ng
- Amount in enzyme-treated urine, Pre [3, 13]: 22.8 ± 19.7 ng
- concentration at 0.5 h ([6]; human, plasma, oral, 0.5 h): 2.34 ng/mL
- concentration at 1 h ([6]; human, plasma, oral, 1 h): 0.987 ± 0.36 ng/mL
- concentration at 2 h ([6]; human, plasma, oral, 2 h, read-out: Plasma concentration in enzyme-treated plasma, 2 h): 0.328 ± 0.183 ng/mL
- concentration at 4 h ([6]; human, plasma, oral, 4 h, read-out: Plasma concentration in enzyme-treated plasma, 4 h): 0.371 ± 0.113 ng/mL
- concentration at 8 h ([6]; human, plasma, oral, 8 h, read-out: Plasma concentration in enzyme-treated plasma, 8 h): 0.222 ± 0.134 ng/mL
- Plasma concentration in enzyme-treated plasma, 0 h ([6]; 0 h (preadministration)): BQL
- Plasma concentration in enzyme-treated plasma, 0.5 h ([6]; 0.5 h): 2.34 ± 0.848 ng/mL
- Stability in gastric pH solution, Quantitative value ([4]; 0.5 h, pH 1.2): 5.58 ng/mL
- Stability in gastric pH solution, Quantitative value ([4]; 1 h, pH 1.2): 7.09 ng/mL
- Stability in gastric pH solution, Quantitative value ([4]; 2 h, pH 1.2): 5.09 ng/mL
- Plasma concentration, 0 h ([5]; mean ± S.D., n = 4): BQL
- Plasma concentration, 4 h ([5]; mean ± S.D., n = 4): BQL
- Plasma concentration, 8 h ([5]; mean ± S.D., n = 4): BQL
- Plasma concentration of unchanged form before enzyme treatment ([5]; detected in only one subject, at any time point): approximately 30 pg/ml
- concentration at 0.5 h ([5]; human, plasma, 0.5 h after single oral rikkunshito 7.5 g, mean ± S.D., n = 4, read-out: Plasma concentration, 0.5 h): 0.00923 ± 0.0185 ng/mL
- concentration at 1 h ([5]; human, plasma, 1 h after single oral rikkunshito 7.5 g, mean ± S.D., n = 4): 0.00715 ± 0.0143 ng/mL
- concentration at 2 h ([5]; human, plasma, 2 h after single oral rikkunshito 7.5 g, mean ± S.D., n = 4, read-out: Plasma concentration, 2 h): 0.00693 ± 0.0139 ng/mL
Compound: COc1c(CC=C(C)C)c(O)cc2oc(=O)c(-c3ccc(O)cc3O)cc12 [Glycycoumarin]

Compound: CC1(C)[C@@H](O[C@H]2O[C@H](C(=O)O)[C@@H](O)[C@H](O)[C@H]2O[C@@H]2O[C@H](C(=O)O)[C@@H](O)[C@H](O)[C@H]2O)CC[C@]2(C)[C@H]3C(=O)C=C4[C@@H]5C[C@@](C)(C(=O)O)CC[C@]5(C)CC[C@@]4(C)[C@]3(C)CC[C@@H]12 [glycyrrhizic acid]
- Formation of ingredients: form found in Blood [7]: 18β-Glycyrrhetinic acid Glycyrrhetinic acid 3-O-glucuronide
- Formation of ingredients: form found in Urine ([7]; BQL = below the quantification limit): 18β-Glycyrrhetinic acid Glycyrrhetinic acid 3-O-glucuronide

- Amount in urine, 0–4 h [2, 8]: 9.00 ± 18.0 ng
- Amount in urine, 4–8 h [2, 9]: BQL
- Amount in urine, Pre [2, 10]: BQL
- Increase of urine concentration after β-glucuronidase treatment compared with before treatment ([3]; rikkunshito 7.5 g): more than 10 fold
- Amount in enzyme-treated urine, 0–4 h [3, 11]: 239 ± 62.5 ng
- Amount in enzyme-treated urine, 4–8 h [3, 12]: BQL
- Amount in enzyme-treated urine, Pre [3, 13]: 3.73 ± 7.46 ng
- Stability in gastric pH solution, Quantitative value [4, 14]: 2.00 ng/mL
- Stability in gastric pH solution, Quantitative value [4, 15]: 1.89 ng/mL
- Stability in gastric pH solution, Quantitative value [4, 16]: 1.83 ng/mL
Compound: CCCCCCC/C=C/C(=O)CCc1ccc(O)c(OC)c1 [[8]-Shogaol, [8]-Shogaol]
